Laboratory results: patent US20140294729A1, “METHODS FOR IDENTIFICATION AND USE OF AGENTS TARGETING CANCER STEM CELLS” (Whitehead Institute for Biomedical Research, priority 2008, published 2014)
“Also recorded” adds a separate entry of the source. *1 amine or outer side, *2 acyl side, *3 side chain or, on linkers, in order; H or OH if unused. Where a SMILES comes first, the peptide text is derived from it. Bridges are numbered along the chain shown (N, C = ends). Roman numbers before positions name the chains, in order. [ ]: non-standard residue; d: D form. Actinocin(9to1) = Cc1c2oc3c(C)ccc(C(=O)[*:1])c3nc-2c(C(=O)[*:2])c(N)c1=O; NMeV = CN[C@H](C(=O)O)C(C)C; Sar = CNCC(=O)O

What was measured:
HMLEshEcad cells [1] = experiment: Dose-response viability of HMLEshCntrl vs HMLEshEcad cells (validation of hits, 384-well, Cell-Titer-Glo); format: cell-based, human; conditions: FIG. 4A; for selective toxicity towards HMLEshEcad cells relative to HMLEshCntrl cells: dose response on retesting; for IC50 fold lower for HMLEshEcad cells vs HMLEshCntrl cells: 3 day treatment, 8 concentrations
Protocol: (§1) FIG. 4A depicts dose response curves of HMLEshCntrl (A, light gray curve) and HMLEshEcad (A, dark gray curve) cells treated with the 8 compounds identified during the initial screen. 1000 cells of each line were seeded onto 384 well plates and treated with 8 different concentrations of compounds within a 2.5 log range. The cell viability after 3 day treatment was measured by Cell-Titer-Glo. […] FIG. 4B depicts dose response curves of HMLEshCntrl (curve with square data points) and HMLE-Twist (curve with triangular data points) cells treated with the same compounds as in (A). Note that selectivity of Salinomycin, Abamectin, Etoposide and Nigericin (Top, Left-to-Right) is retained even though a different method of EMT induction is used. […] 1 Day after seeding DMSO, Salinomycin (1.25 or 5 μM) or Abamectin (0.25 or 1.25 μM) was added at the indicated concentration. As the GFP vector contains a Blasticidin resistance gene, we used Blasticidin treatment as a positive control for the expansion of GFP-expressing control HMLE cells. After 3 day incubation the mix population of cells were analyzed by flow cytometry and the percentage of GFP-positive cells were determined. […] FIG. 4D depicts dose response curves of transformed HMLERshCntrl (light gray line) and HMLERshEcad (dark gray lines) cells treated with Salinomycin and Abamectin. Dotted line denotes the 50% fraction surviving.
We pursued 8 of the 32 compounds for further study and evaluated their effects across a range of doses.
For each of these compounds, we evaluated the effect on cell viability across a series of doses for sibling cell lines either induced into or not induced into EMT.
Information about the general automated HTS protocol is available online at broad.harvard.edu/chembio/index.html. The assay was initiated by plating 40 μL of medium containing 1000 cells/well into white 384-well opaque-bottom plates (Nunc, Rochester, N.Y.) using an automated plate filler (Bio-Tek μFiller; Winsooki, Vt.) and allowing the cells to adhere for 24 hours. 100 nL of compound stock solutions in dmso was transferred from stock plates into the 384-well assay plates using an automated pin-based compound transfer robot (CyBio CyBi-Well vario; Woburn, Mass.). For most compounds the final concentration in each well was calculated to be 10 uM.
The screen was performed in duplicate. For negative controls, entire dmso-treated control plates were employed, in addition to dmso-only control wells that were incorporated into each compound assay plate. The cells were assayed for luciferase activity with the addition 20 ul of CellTiter-Glo Luminescent Cell Viability Assay solution (Promega). The luminescent signal from each plate was detected using an automated plate reader (Perkin-Elmer Envision 1; Wellesley, Mass.).
(§2) Individual compounds were purchased from Sigma and dissolved in DMSO with the exception of nigericin which was dissolved in 100% ethanol. Activity of the compounds were quantified by generating dose-response curves for HMLE-shCntrl, HMLE-shEcad and HMLE-Twist under the same cell density and culture conditions described for the initial screen, using the 384-well plate based system.

HMLEshEcad cells [2] = experiment: Resistance to cytotoxic agents, immortalized HMLEshCntrl vs HMLEshEcad (MTS viability); format: cell-based, human; conditions: three concentrations, FIG. 2B
Protocol: (§3) FIGS. 2A-2D depict that passage through the EMT leads to resistance to conventional chemotherapy drugs. FIG. 2A depicts dose response curves of transformed HMLERshCntrl (light gray line) and HMLERshEcad (dark gray line) cells treated with Paclitaxel and Doxorubicin. Dotted line denotes the 50% fraction surviving. […] FIG. 2B depicts the response of immortalized cells to chemotherapy drugs. HMLEshCntrl and HMLEshEcad cells were treated with the indicated drugs at three concentrations for 3 days and assayed for viability using the MTS assay. While Doxorubucin, Actinomycin D, Paclitaxel and Campthotecin are chemotherapeutic drugs, Staurosporine is a general kinase inhibitor that potently induce apoptosis. FIGS. 2C and 2D depict paclitaxel treatment leads to selective expansion of a minority cell population that has undergone an EMT. Control HMLE cells and GFP expressing HMLEshEcad cells were mixed at a ratio of 20:1 and seeded onto 6-well plates in triplicate. DMSO or Paclitaxel at 2.5 nm or 10 nm concentration was added onto the mixed cell populations 1 day after seeding followed by a 3 day incubation. The number of GFP-positive cells at the end of treatment were analyzed by flow cytometry. […] Note the increase in GFP positivity from 5% to 14% upon […] Paclitaxel treatment.
However, we postulated that the differential drug sensitivity observed was, rather, a consequence of the respective differentiation states of the immortalized cells from which the cancer cell lines were derived. To directly examine this hypothesis, we treated HMLEsiGFP and HMLEsiEcad cells for a period of […] with a series of chemical compounds at 3 different concentrations each. Included in these compounds were the established chemotherapy drugs Doxorubicin, Paclitaxel, Actinomycin D, Camptothecin as well as a broad kinase inhibitor, Staurosporine.
(§4) Doxorubicin, paclitaxel, actinomycin D, campthotecin and staurosporine were purchased from Sigma and dissolved in dimethyl sulfoxide (dmso). 5000 cells in 100 ul of medium were plated per well in 96-well plates. 24 hrs after seeding, compounds at the indicated concentration were added to wells (5 wells per each concentration). Dmso treatment was used as negative control. Cell viability was measured after 72 hrs using the CellTiter96 AQueous Assay (Promega) according to manufacturer's instructions. Dose response curves were generated with GraphPad Prism software (GraphPad Software, Inc.).

SUM159 cells = experiment: FACS of the CD44hi/CD24lo fraction in treated SUM159 cells; format: cell-based; conditions: FIGS. 5C and 5D
Excerpt: FIG. 5A depicts flow cytometry analysis of Sum159, MDA-MB-231 and T47D cell lines with respect to cell surface expression of CD44 and CD24. Note that while the majority of cells in Sum159 and MDA-MB-231 line contain large amounts of CSCs, T47D cells have very few such cells. FIG. 5B depicts dose response curves of Sum159, MDA-MB-231 and T47D cell treated with Salinomycin.
To further characterize the effects of compound treatment on cancer cells, we conducted FACS analyses on SUM159 cells treated with salinomycin, abamectin, taxol, or DMSO.
The anti-CD44 (clone G44-26) antibody conjugated to APC and the anti-CD24 antibody (clone ML5) conjugated to PE used for FACS analysis were obtained from BD Bioscience and used according to the manufacturer's instructions. Propidium Iodide (5 ug/ml) was included in the staining protocol to distinguish live cells.

HMLE-Twist cells [3] = experiment: Dose-response viability of HMLEshCntrl vs HMLE-Twist cells; format: cell-based, human; conditions: EMT induced by Twist, FIG. 4B
Protocol: as §1, §2

HMLERshEcad cells [4] = experiment: Dose response of transformed HMLERshCntrl vs HMLERshEcad cells to screen hits; format: cell-based, human; conditions: range of concentrations, FIG. 4D
Protocol: as §1

HMLE-Twist cells [5] = experiment: Co-culture of GFP-expressing HMLE cells and unlabelled HMLE-Twist cells, FACS for GFP positivity; format: cell-based, human; conditions: FIG. 4C; for GFP-positive fraction relative to DMSO-treated controls: GFP-labeled HMLE + unlabeled HMLE-Twist
Protocol: as §1
To examine the effects of salinomycin and abamectin treatment on heterogeneous populations of epithelial cells that have and epithelial cells that have not undergone EMT, we co-mixed GFP-labeled HMLE cells with unlabeled HMLE-Twist cells, treating the resulting co-cultures with compounds. As a positive control for this experiment we treated co-cultures with blasticidin, which selects for the differentiated HMLE-GFP cells, which harbor a blasticidin-resistance gene.
For the mix experiments, unlabelled and GFP-labeled cells were mixed at the indicated ratios and seeded onto 6-well plates. Triplicate wells were then treated with dmso or the compounds (paclitaxel, salinomycin, abamectin and blasticidin) for 48 hrs. The cells were washed with PBS, trypsinized and analyzed by FACS for GFP positivity.

HMLERshEcad cells [6] = experiment: Resistance to cytotoxic agents, transformed HMLERshCntrl vs HMLERshEcad dose response; format: cell-based, human; conditions: FIG. 2A
Protocol: as §3
Since the HMLERsiEcad cells have a 100-fold increase in the frequency of cells capable of seeding tumors, we examined their response to two commonly used chemotherapy drugs, relative to HMLERsiGFP controls. We treated cultured HMLERsiGFP and HMLERsiEcad cells for a period of 3 days with either doxorubicin or paclitaxel, at various concentrations.
as §4

## c1ccc2nc3ccccc3cc2c1 [Acridine]
HMLEshEcad cells [1]
  selective toxicity towards HMLEshEcad cells relative to HMLEshCntrl cells: do not display such a behaviour

## Cc1c2oc3c(C)ccc(C(=O)N[C@@H]4C(=O)N[C@H](C(C)C)C(=O)N5CCC[C@H]5C(=O)N(C)CC(=O)N(C)[C@@H](C(C)C)C(=O)O[C@@H]4C)c3nc-2c(C(=O)N[C@@H]2C(=O)N[C@H](C(C)C)C(=O)N3CCC[C@H]3C(=O)N(C)CC(=O)N(C)[C@@H](C(C)C)C(=O)O[C@@H]2C)c(N)c1=O [actinomycin D] (I: T[dV]P[Sar][NMeV] / II: T[dV]P[Sar][NMeV]; ester I:1-I:C, II:1-II:C; linker I:N-II:N via Actinocin(9to1))
HMLEshEcad cells [2]
  resistance of HMLEshEcad cells relative to HMLEshCntrl control cells: resistant
HMLEshEcad cells [2]; listed as Actinomycin D
  resistance of HMLEshEcad cells relative to HMLEshCntrl control cells: increased resistance

## CC[C@@]1(O)C(=O)OCc2c1cc1n(c2=O)Cc2cc3ccccc3nc2-1 [camptothecin]
HMLEshEcad cells [2]
  resistance of HMLEshEcad cells relative to HMLEshCntrl control cells: resistant
HMLEshEcad cells [2]; listed as Camptothecin
  resistance of HMLEshEcad cells relative to HMLEshCntrl control cells: increased resistance

## abamectin
SUM159 cells
  percent of cells in the CD44hi/CD2410 fraction relative to DMSO controls: did not significantly alter
HMLE-Twist cells [3]
  selectivity for HMLE-Twist cells vs HMLEshCntrl; dose-response curves compared with HMLEshEcad: is retained
HMLERshEcad cells [4]
  selective toxicity for HMLERshEcad (MT tumorigenic) cells: modest but selective toxicity
HMLEshEcad cells [1]
  IC50 fold lower for HMLEshEcad cells vs HMLEshCntrl cells: ~10 fold
  selective toxicity towards HMLEshEcad cells relative to HMLEshCntrl cells: moderate to strong selectivity; also recorded: strong specificity
HMLEshEcad cells [1]; listed as Abamectin
  selective toxicity towards HMLEshEcad cells relative to HMLEshCntrl cells: selective toxicity
HMLE-Twist cells [5]
  GFP-positive fraction relative to DMSO-treated controls: increase
HMLE-Twist cells [5]; Salinomycin 1.25 or 5 μM, Abamectin 0.25 or 1.25 μM
  proportion of HMLETwist cells in co-culture with control cells: dose-dependent decrease; also recorded: selection against the GFP-negative HMLE-twist cells

## CO[C@@H]1C[C@@H](C[C@H]2CC[C@H](C)[C@H]([C@@H](C)C(=O)O)O2)O[C@]2(O[C@](C)([C@H]3CC[C@@](C)([C@@H]4O[C@@H]([C@H]5O[C@@](O)(CO)[C@H](C)C[C@@H]5C)C[C@@H]4C)O3)C[C@H]2C)[C@@H]1C [nigericin]
HMLE-Twist cells [3]
  selectivity for HMLE-Twist cells vs HMLEshCntrl; dose-response curves compared with HMLEshEcad: is retained
HMLEshEcad cells [1]
  IC50 fold lower for HMLEshEcad cells vs HMLEshCntrl cells: ~7 fold
  selective toxicity towards HMLEshEcad cells relative to HMLEshCntrl cells: weaker selectivity; also recorded: modest selective toxicity
HMLEshEcad cells [1]; listed as Nigericin
  selective toxicity towards HMLEshEcad cells relative to HMLEshCntrl cells: selective toxicity

## CN[C@@H]1C[C@H]2O[C@@](C)([C@@H]1OC)n1c3ccccc3c3c4c(c5c6ccccc6n2c5c31)C(=O)NC4 [staurosporine]
HMLEshEcad cells [2]
  resistance of HMLEshEcad cells relative to HMLEshCntrl control cells: resistant
HMLEshEcad cells [2]; listed as Staurosporine
  resistance of HMLEshEcad cells relative to HMLEshCntrl control cells: increased resistance

## COc1cccc2c1C(=O)c1c(O)c3c(c(O)c1C2=O)C[C@@](O)(C(=O)CO)C[C@@H]3O[C@H]1C[C@H](N)[C@H](O)[C@H](C)O1 [doxorubicin]
HMLEshEcad cells [2]
  resistance of HMLEshEcad cells relative to HMLEshCntrl control cells: increased resistance
HMLERshEcad cells [6]; 3 days, various concentrations
  IC50 for HMLERsiEcad cells relative to IC50 for HMLERsiGFP cells: significantly higher
HMLERshEcad cells [6]
  resistance of HMLERshEcad cells compared to HMLERshCntrl cells: significantly more resistant
HMLERshEcad cells [6]; listed as Doxorubicin
  resistance of HMLERshEcad cells compared to HMLERshCntrl cells: more resistant

## Clc1ccccc1C(c1ccccc1)(c1ccccc1)n1ccnc1 [Clotrimazole]
HMLEshEcad cells [1]
  selective toxicity towards HMLEshEcad cells relative to HMLEshCntrl cells: do not display such a behaviour

## Oc1cccc(O)c1 [Resorcinol]
HMLEshEcad cells [1]
  selective toxicity towards HMLEshEcad cells relative to HMLEshCntrl cells: do not display such a behaviour

## CN(CC[C@H](N)CC(=O)N[C@H]1C=C[C@H](n2ccc(N)nc2=O)O[C@@H]1C(=O)O)C(=N)N [blasticidin]
HMLE-Twist cells [5]
  GFP-positive fraction relative to DMSO-treated controls: increase
